Values of other authors in patent US10273202B2, “Nitroxyl progenitor compounds and methods of use” (The Johns Hopkins University, priority 2004, dated 2019).
Read-outs that look alike come from different tables or passages of the source.

Test system: dog with congestive heart failure
Conditions: CHF dogs
[1] = 5-10 μg/kg/min for 15 min i.v., n=8

[Na+].[Na+].[O-][N+]([O-])=NO [AS, Angeli's salt]
Ees, % from baseline [1]: +46 ± 8%
LVEDD, % from baseline [1]: −3.8 ± 1%
LVEDP, % from baseline [1]: −50 ± 12%
LVESD, % from baseline [1]: −3.9 ± 1%
LVESP, % from baseline [1]: −13 ± 2%
RT, % from baseline [1]: −12 ± 5%
Tau, % from baseline [1]: −18 ± 2%
Ees, % from baseline (5-10 μg/kg/min, + volume): +37 ± 5%
LVEDD, % from baseline (5-10 μg/kg/min, + volume): −1.7 ± 1%
LVEDP, % from baseline (5-10 μg/kg/min, + volume): −34 ± 19%
LVESD, % from baseline (5-10 μg/kg/min, + volume): −3.0 ± 0.5%
LVESP, % from baseline (5-10 μg/kg/min, + volume): −9.9 ± 2%
RT, % from baseline (5-10 μg/kg/min, + volume): −14 ± 4%
Tau, % from baseline (5-10 μg/kg/min, + volume): −15 ± 3%
